Experimental findings from patent publication EP0494754A1, “3-hydroxypyridin-4-one derivatives as pharmaceutical compositions” (BRITISH TECHNOLOGY GROUP LTD, priority 1991, dated 1992) are described below.

Where two headings read alike, the source gives them in different places.

Assay type in all cases: cell-based
The test system of experiment [1] is P. falciparum. The experiment can be described thus: Inhibition of growth of P. falciparum in red cell culture (tritiated hypoxanthine uptake, continuous exposure to chelator). To be noted: for level of activity against red blood cells parasitized by P. falciparum (relative ranking): comparison between compounds, no figures; for growth inhibition of P. falciparum: 50 µmol/l iron binding concentration, after 30 hours, Figure 2; for percentage inhibition of growth after 30 hours as compared with the controls: iron binding concentration of 100 µmol of iron per litre, Figure 1; for minimal effective concentration: Plasmodium falciparum, further study, method not detailed, read-out: dosage level at which marked growth inhibition was observed. Here is the method:
(A) An uncloned strain of P. falciparum, ITO4, was grown on blood group O red cells using a modification of the method described by Trager et al in Science, 1976, […], 673. An atmopshere consisting of 1% oxygen, 3% carbon dioxide and 96% nitrogen was maintained throughout the experiments. Red cells were suspended at a hematocrit of 3% in RPMI 1640 that had been supplemented with 10% v/v human serum, 2 g/l glucose, 4 mM NaOH, 25 µg/ml gentamicin, 1.9 mM glutamine and 25 mM HEPES to form complete medium. For experimental purposes the red cells were then further diluted with the same medium to a final hematocrit of 1.5%. Synchronised parasite cultures were obtained using a combination of sorbitol lysis and gelatin flotation, as described respectively by Jensen et al in Am. J. Trop. Med. Hyg., 1978, 27, 1274 and Lambros et al in J. Parasitol., 1979, 65, 418, thus ensuring that only young ring forms remained. The starting parasitemia in each experiment was between 0.1 and 0.5%.
A red cell suspension containing only recently synchronised ring parasites was treated with 0.2 µCi of tritiated hypoxanthine per 100 µl of red cell suspension and one of ten chelating agents as identified in the Table was added in complete medium to the suspension in an amount such as to produce an iron binding concentration of 100 µmol of iron per litre (all of the chelators combine with iron in a ratio of 3 moles of chelator:1 mole of iron apart from the chelator number 10, desferrioxamine, which combines in a 1:1 molar ratio). The test cultures were immediately dispersed in 200 µl aliquots into 96 well microculture plates. Each chelator was tested in three or more wells and the whole experiment was carried out at least twice for each chelator. Control cultures were used in each experiment which contained no iron chelator.
The growth of the P. falciparum parasites was assessed both by light microscopy examination of thin films that had been stained with Giemsa and through measurement of tritiated hypoxanthine uptake, the cell cultures being harvested onto glass fibre filters and radioactivity, in terms of beta emission from each well, being measured in a flat bed liquid scintillation counter as described by Potter et al in Phys. Med. Biol., 1986, 31(4), 361.
The chelators tested consisted of 1-(2′-carboxyethyl)-3-hydroxy-2-methylpyridin-4-one (R₁ = CH₂CH₂CO₂H, R₂ = CH₃, R₃ = R₄ = H; compound 1) and, for the purposes of comparison with this chelator, nine other chelators not of formula (I) as defined hereinbefore, of which compounds 2 to 9 are 3-hydroxypyridin-4-ones and compound 10 is desferrioxamine. […] These findings were supported by a morphological examination of red cells sampled from the cultures. […] (B) The effect of using different dosage levels than the 100 µmol/l level used in (A) was studied employing the same procedure but using four dosage levels of 10 µmol/l, 25 µmol/l, 50 µmol/l and […]. Only the eight chelators which produced an inhibitory effect at 100 µmol/l were studied and controls containing no iron chelator were again employed.

The subject of experiment [2] is MEL cells, clone 585. The experiment can be described thus: Inhibition of growth of murine erythroleukaemia (MEL) cells, cell counting. To be noted: 50 µmol/l iron binding concentration; after 30 hours; Figure 2. The method, then: MEL cells, clone 585, were grown in suspension culture at 37°C in RPMI 1640 that had been supplemented with 13% v/v foetal calf serum, 25 µl/ml gentamicin, 1.9 mM glutamine and 2% diaminopurine as described by Peto et al in Br. J. Haematol., 1983, 54, 623. The cultures were maintained in an atmosphere containing 5% carbon dioxide and passaged every 3-4 days at a seeding concentration of 1-2 x 10⁴/ml to ensure that the cells were continually in logarithmic growth phase. Under these conditions, the doubling time for cell growth was 30-36 hours.
10 ml volumes of cell suspension were incubated in 50 ml flasks with each of the ten chelators identified in the Table at a 50 µmol/l iron binding concentration, controls being employed which contained no chelator. 400 µl aliquots were removed in duplicate for growth assessment at 24 hour intervals over the next four days. The experiment was repeated on three separate occasions, the initial cell concentration in each case being 2-3 x 10⁴ cells/ml. Cell growth was assessed both by examination of cultures using light microscopy and by cell counting. At various times throughout each experiment, 400 µl culture was added to 19.6 ml Isoton and the number of particles counted using a Coulter Counter ZN set at threshold 20 and attenuation 0.4
The effect of the different chelators on growth of the MEL cells after 30 hours was compared with the effect produced after a similar time by the same chelators at a 50 µmol/l iron binding concentration using the procedure described in Example 2(A). The results are illustrated in Figure 2. It will be seen that the compounds 2, 3, 4, 5, 6, 9 and 10 inhibited growth of MEL cells and of P. falciparum, the minimum growth inhibition being 80% and 70% respectively. […] When these two groups of chelators were examined together a close linear correlation (r = 0.978) was found between the degree of growth inhibition produced in both types of cell for each chelator studied. The compound 1 was distinguished from all of the other chelators in being the only one to have no significant inhibitory effect on the growth of MEL cells (<10%) whilst at the same time producing a substantial inhibitory effect on the growth of P. falciparum (>75%).

The subject of experiment [3] is P. falciparum. Put plainly: 6 hour pulse exposure at different stages of the first parasite cycle, growth by tritiated hypoxanthine uptake. Details: dose or concentration left out as unconfirmed. The settings on record: Plasmodium falciparum. The method, then:
In the case of 2-carboxymethyl-3-hydroxy-1-methylpyridin-4-one, 1-(2-carboxyethyl)-2-ethyl-3-hydroxypyridin-4-one and 1-(3-carboxypropyl)-2-methyl-3-hydroxypyridin-4-one a dosage level of 0.5 µmol/l was required to produce a similar level of growth inhibition and in the case of 3-hydroxy-2-methyl-1-(2-sulphoethyl)pyridin-4-one a dosage level of 1 µmol/l was required. (C) A culture of ring parasites obtained as in (A) was dispensed in 3 ml volumes into separate flasks. Different cultures were exposed during a 6 hour period to the compound 1 in a 100 µmol/l iron binding concentration at different stages during the first parasite cycle and controls containing no chelator were again employed. At the end of each 6 hour pulse, all cultures were washed twice in RPMI 1640 and the pellet was resuspended in complete medium. At 40 hours, when cells from cultures that had not been exposed at any time to a chelator contained segmenting schizonts, tritiated hypoxanthine was added to the incubation medium of all the cultures. Growth of the parasites was assessed after further periods of 42 hours (during second cycle), 65 hours (during third cycle) and 84 hours (during fourth cycle). Each pulse of compound 1 was duplicated in separate flasks. Morphologically, synchrony of the cultures was clearly lost during the third parasite cycle.
Furthermore, no morphological differences were detected between parasites that were sampled from these cultures and untreated parasites. On the other hand, incubation with compound 1 during the schizont stage (24-30 hours) of parasite development did produce an inhibitory effect on the growth of P. falciparum resulting in 38% and 30% growth inhibition during the second and third cycles. Morphologically these cultures contained a mixed population of degenerate forms and young ring parasites with evidence of red cell reinvasion. Thus it will be seen that the effect of compound 1 is maximised during the early schizont stage of the development of the parasite. However, the employment of 6 hour pulses in order to compare the effects of the compound at different stages, as opposed to the continuous treatment employed in (A), did lead to a lower level of anti-malarial effect.

On to `Cc1c(O)c(=O)ccn1CC(=O)O` [compound (9), 1-carboxymethyl-3-hydroxy-2-methylpyridin-4-one], for which the “level of activity against red blood cells parasitized by P. falciparum (relative ranking)” value (from here on “level … by P. falciparum (relative ranking)”) in experiment [1] is “somewhat greater than that of the compound 3-hydroxy-2-methyl-1-(2-sulphoethyl)pyridin-4-one”.

As to `COCCn1ccc(=O)c(O)c1C` [compound 6, 3-hydroxy-1-(2-methoxyethyl)-2-methylpyridin-4-one], the “growth inhibition of MEL cells” value in experiment [2] is on record as no less than 80%. Besides, in experiment [1], the “growth inhibition of P. falciparum” value is no less than 70% and the “percentage inhibition of growth after 30 hours as compared with the controls” value (“percentage inhibition of growth” for short) is given as “more than 65%”.

As for `Cc1c(O)c(=O)ccn1CCN.Cl` [compound 5, 1-(2-aminoethyl)-3-hydroxy-2-methylpyridin-4-one hydrochloride], the “growth inhibition of MEL cells” value in experiment [2] is no less than 80%. Also, in experiment [1], the “growth inhibition of P. falciparum” value is on record as no less than 70% and the “percentage inhibition of growth” value is reported as “more than 65%”.

For `CC1=NC=CC(=O)C1O` (stereo not shown) [compound 3, 3-hydroxy-2-methylpyridin-4-one], the “growth inhibition of MEL cells” value in experiment [2] is no less than 80%. Moreover, in experiment [1], the “growth inhibition of P. falciparum” value is recorded as no less than 70% and the “percentage inhibition of growth” value is “more than 65%”.

For the compound `CCc1c(O)c(=O)ccn1C` [compound 9, 2-ethyl-3-hydroxy-1-methyl-pyridin-4-one], the “growth inhibition of MEL cells” value in experiment [2] is given as no less than 80%. In experiment [1], the “growth inhibition of P. falciparum” value is recorded as no less than 70% and the “percentage inhibition of growth” value was “more than 65%”.

With `Cc1c(O)c(=O)ccn1C` [compound 2, 3-hydroxy-1,2-dimethylpyridin-4-one], in experiment [2], the “growth inhibition of MEL cells” value was no less than 80%. Further, in experiment [1], the “growth inhibition of P. falciparum” value was no less than 70% and the “percentage inhibition of growth” value is “more than 65%”.

As for `Cc1c(O)c(=O)ccn1CCCCCC(=O)O` [compound 7, 1-(5-carboxypentyl)-3-hydroxy-2-methylpyridin-4-one], the “growth inhibition of MEL cells” value in experiment [2] was “little inhibitory effect”. In experiment [1], the “growth inhibition of P. falciparum” value is reported as “little inhibitory effect” and the “percentage inhibition of growth” value is on record as “less than 12%”.

In the case of `Cc1c(O)c(=O)ccn1CCS(=O)(=O)O` [3-hydroxy-2-methyl-1-(2-sulphoethyl)-pyridin-4-one], the minimal effective concentration in experiment [1] amounted to 1 µM.

On to `Cc1c(O)c(=O)ccn1CCCC(=O)O` [(16), 1-(3-carboxypropyl)-2-methyl-3-hydroxypyridin-4-one], for which, in experiment [1], the minimal effective concentration came out at 0.5 µM and the “level … by P. falciparum (relative ranking)” value is on record as “higher level of activity than compound (9)”.

Turning to `CCc1c(O)c(=O)ccn1CCC(=O)O` [(12), 1-(2-carboxyethyl)-2-ethyl-3-hydroxypyridin-4-one], in experiment [1], the minimal effective concentration stood at 0.5 µM and the “level … by P. falciparum (relative ranking)” value is “higher level of activity than compound (9)”.

For `Cc1c(O)c(=O)ccn1CCO` [compound 4, 3-hydroxy-1-(2-hydroxyethyl)-2-methylpyridin-4-one], the “growth inhibition of MEL cells” value in experiment [2] was no less than 80%. In experiment [1], the “growth inhibition of P. falciparum” value is listed as no less than 70% and the “percentage inhibition of growth” value is given as “more than 65%”.

Turning to `Cc1c(O)c(=O)ccn1CCCCCC(=O)NCCC(=O)O` [compound 8, 1-(5-(N-(2-carboxyethyl)-carbamoyl)pentyl)-3-hydroxy-2-methylpyridin-4-one], the “growth inhibition of MEL cells” value in experiment [2] is given as “little inhibitory effect”. In experiment [1], the “growth inhibition of P. falciparum” value was “little inhibitory effect” and the “percentage inhibition of growth” value was “less than 12%”.

Take `Cn1ccc(=O)c(O)c1CC(=O)O` [(5), 2-carboxymethyl-3-hydroxy-1-methylpyridin-4-one]: in experiment [1], the minimal effective concentration was found to be 0.5 µM.

With `Cc1c(O)c(=O)ccn1CCC(=O)O` [compound 1, 1-(2-carboxyethyl)-3-hydroxy-2-methylpyridin-4-one], the “growth inhibition of MEL cells” value in experiment [2] is recorded as less than 10%. The “growth inhibition of P. falciparum” value in experiment [1] is listed as greater than 75%. The minimal effective concentration in experiment [1] was 0.1 µM. Also, the “level … by P. falciparum (relative ranking)” value in experiment [1] is “higher level of activity against red blood cells parasitized by P. falciparum than compounds (12) and (16)”. Further, in experiment [1], the “percentage inhibition of growth” value is listed as “more than 65%”. Also, the inhibition is 0% in experiment [3] (6 hour pulse at 6-12 hours of first cycle, read-out: growth inhibition during the third cycle); 11.4% in experiment [3] (6 hour pulse at 12-18 hours of first cycle, read-out: growth inhibition during the second cycle); 12% in experiment [3] (6 hour pulse at 12-18 hours of first cycle, read-out: growth inhibition during the third cycle); 0% in experiment [3] (6 hour pulse at 18-24 hours of first cycle, read-out: growth inhibition during the second cycle); 0% in experiment [3] (6 hour pulse at 18-24 hours of first cycle, read-out: growth inhibition during the third cycle); 38% in experiment [3] (6 hour pulse during the schizont stage (24-30 hours), read-out: growth inhibition during the second cycle). Also, the inhibition in experiment [3] (6 hour pulse during the schizont stage (24-30 hours), read-out: growth inhibition during the third cycle) stood at 30%.
